Laboratory results taken from patent US20110177061A1, “METHODS OF TREATING AND PREVENTING NEUROLOGICAL DISORDERS USING DOCOSAHEXAENOIC ACID” (MARTEK BIOSCIENCES CORPORATION, priority 2009, published 2011).
Entries after “also recorded” stand apart in the source; their conditions may differ.

Legend:
[1] = test system: human patients with mild to moderate Alzheimer's disease; test: MRI sub-study, brain volume change; format: in vivo
Description: (§1) A clinical trial was carried out to determine whether chronic DHA supplementation slows the progression of cognitive and functional decline in human patients with mild to moderate Alzheimer's disease. In the study, 402 individuals with mild to moderate Alzheimer's disease participated for 18 months at sites throughout the United States. Participants were randomized so that 60% of participants received approximately 2 grams of DHA (divided into 4 capsules—2 capsules taken twice a day), while 40% of the participants received an identical placebo of corn/soy oil. The DHA soft-gel capsules used in the study were provided by Martek Biosciences Corporation, and contained a microbial oil of 55% DHA (as a percentage of total fatty acids) in triglyceride form, in addition to tocopherol and orange flavoring. The capsules contained no detectable EPA. The placebo was a 50/50 mixture of corn/soy oil and also included mixed tocopherols, ascorbyl, palmitate, orange flavoring, and orange masking agent.

[2] = test system: human patients with mild to moderate Alzheimer's disease; test: CDR-SOB (co-primary outcome) in clinical trial; format: in vivo
Description: as §1, with “agent. Following the eligibility assessment, 238 of the 402 patients were randomly assigned to the DHA treatment group and 164 patients to the placebo group. Of the 238 patient DHA treatment group, 171 patients completed the full 18 month course of treatment. Of the 164 placebo group, 124 patients completed the full 18 month course of treatment. Various parameters were measured at baseline and at every 6 months through the conclusion of the trial at 18 months.” for “agent.”

[3] = test system: human patients with mild to moderate Alzheimer's disease; test: Vital signs and lab results in clinical trial; format: in vivo; details: 18 month trial
Description: (§2) A clinical trial was carried out to determine whether chronic DHA supplementation slows the progression of cognitive and functional decline in human patients with mild to moderate Alzheimer's disease.
as §1, with “In” for “A clinical trial was carried out to determine whether chronic DHA supplementation slows the progression of cognitive and functional decline in human patients with mild to moderate Alzheimer's disease. In”
(§3) Various parameters were measured at baseline and at every 6 months through the conclusion of the trial at 18 months.

[4] = test system: human patients with mild to moderate Alzheimer's disease; test: NPI (secondary outcome) in clinical trial; format: in vivo
Description: as §1, with “agent. Following the eligibility assessment, 238 of the 402 patients were randomly assigned to the DHA treatment group and 164 patients to the placebo group. Of the 238 patient DHA treatment group, 171 patients completed the full 18 month course of treatment. Of the 164 placebo group, 124 patients completed the full 18 month course of treatment. Various parameters were measured at baseline and at every 6 months through the conclusion of the trial at 18 months.” for “agent.”

[5] = Plasma phospholipid DHA levels in clinical trial; format: in vivo, human; details: DHA treatment group
Source text: as §1, with “In” for “A clinical trial was carried out to determine whether chronic DHA supplementation slows the progression of cognitive and functional decline in human patients with mild to moderate Alzheimer's disease. In”
as §3
(§4) Plasma phospholipid fatty acid levels were determined using established methods, with modifications for cerebrospinal fluid analysis (Arterburn et al., 2007, Lipids 42(11):1011-1024; Arterburn et al., 2008, J Am Diet Assoc. 108(7):1204-1209). The fatty acid profiles were expressed as a percent of the total μg of fatty acid (weight percent).

[6] = test system: human patients with mild to moderate Alzheimer's disease; test: ADCS-ADL (secondary outcome) in clinical trial; format: in vivo
Description: as §1, with “agent. Following the eligibility assessment, 238 of the 402 patients were randomly assigned to the DHA treatment group and 164 patients to the placebo group. Of the 238 patient DHA treatment group, 171 patients completed the full 18 month course of treatment. Of the 164 placebo group, 124 patients completed the full 18 month course of treatment. Various parameters were measured at baseline and at every 6 months through the conclusion of the trial at 18 months.” for “agent.”

[7] = test system: human patients with mild to moderate Alzheimer's disease; test: ADAS-cog (co-primary outcome) in clinical trial; format: in vivo
Description: as §1, with “agent. Following the eligibility assessment, 238 of the 402 patients were randomly assigned to the DHA treatment group and 164 patients to the placebo group. Of the 238 patient DHA treatment group, 171 patients completed the full 18 month course of treatment. Of the 164 placebo group, 124 patients completed the full 18 month course of treatment. Various parameters were measured at baseline and at every 6 months through the conclusion of the trial at 18 months.” for “agent.”

[8] = Cerebrospinal fluid (CSF) DHA levels in CSF sub-study; format: in vivo, human
Description: All subjects without contraindication to cerebrospinal fluid (CSF) exam (e.g., anticoagulation) were invited to participate in the CSF study. In these subjects, lumbar puncture was performed in the morning after an overnight fast.
as §4

[9] = test system: human patients with mild to moderate Alzheimer's disease; test: MMSE (secondary outcome) in clinical trial; format: in vivo
Description: as §1, with “agent. Following the eligibility assessment, 238 of the 402 patients were randomly assigned to the DHA treatment group and 164 patients to the placebo group. Of the 238 patient DHA treatment group, 171 patients completed the full 18 month course of treatment. Of the 164 placebo group, 124 patients completed the full 18 month course of treatment. Various parameters were measured at baseline and at every 6 months through the conclusion of the trial at 18 months.” for “agent.”

[10] = test system: human patients with mild to moderate Alzheimer's disease; test: Pre-planned secondary analysis of DHA treatment and ApoE4 allelic status, all outcome measures; format: in vivo
Description: as §2
as §1, with “In” for “A clinical trial was carried out to determine whether chronic DHA supplementation slows the progression of cognitive and functional decline in human patients with mild to moderate Alzheimer's disease. In”
A pre-planned secondary analysis was also carried out examining the effect of DHA treatment and ApoE4 (E4) allelic status. […] This effect was also evident on the MMSE (−3.36±4.78 in DHA compared to 5.12±5.08 in placebo; p=0.034), but was not present on the CDR-SOB, the ADCS-ADL, or the NPI.

[11] = all subjects, LME model, GEE or ANCOVA

Plasma phospholipid DHA ([5]; approx. 2 g DHA/day oral, 6 months): 9.1 wt % | Plasma phospholipid DHA ([5]; approx. 2 g DHA/day oral, 12 months): 10.23 wt % | Plasma phospholipid DHA ([5]; approx. 2 g DHA/day oral, 18 months, p<0.001): 9.77 wt % | Plasma phospholipid DHA ([5]; baseline (before treatment)): 3.18 wt % | CSF DHA ([8]; DHA supplemented group n=29, 18 months, p<0.001): 3.45 wt % | CSF DHA ([8]; DHA supplemented group n=29, baseline (before treatment)): 2.53 wt %
Structure (SMILES): CC/C=C\C/C=C\C/C=C\C/C=C\C/C=C\C/C=C\CCC(=O)O [DHA, (all-Z)-4,7,10,13,16,19-docosahexaenoic acid]
Absolute volume change over 18 months, total ventricular volume ([1]; MRI sub-study n=53 DHA, placebo 8.1±5.9, p=0.55): 9.1±5.0 cm^3 | Absolute volume change over 18 months, total brain ([1]; MRI sub-study n=53 DHA, placebo 24.0±14.6, p=0.79): 24.7±12.3 cm^3 | Absolute volume change over 18 months, right hippocampus ([1]; MRI sub-study n=53 DHA, placebo 148±109, p=0.29): 176±128 mm^3 | Absolute volume change over 18 months, left hippocampus ([1]; MRI sub-study n=53 DHA, placebo 175±135, p=0.17): 141±104 mm^3 | Effect of DHA treatment on absolute amount of brain volume change over 18 months ([1]; MRI sub-study, ANCOVA, total brain, hippocampus, total ventricular volume): no evidence of an effect | Effect of DHA on rates of brain atrophy among ApoE4 negative subjects ([1]; MRI sub-study, n=21 DHA, n=17 placebo): Neither was an effect of DHA seen | DHA treatment effect on CDR-SOB in the E4-negative group ([2]; ApoE4-negative subjects): not present | Difference DHA vs placebo on CDR-SOB (rate of change) ([2]; all subjects, LME model, GEE or ANCOVA, ITT or per protocol): also did not differ; also recorded: no significant difference | CDR-SOB points change over 18 months ([2]; all subjects, placebo 2.87±2.93, p=0.68): 2.93±2.83 points | Cholesterol level change [3]: modest increase | Diastolic blood pressure change [3]: modest decline | HDL level change [3]: no change | Heart rate change [3]: modest decline | LDL level change [3]: modest increase | Systolic blood pressure change [3]: no change | Triglycerides change [3]: modest decline | Weight change [3]: no change | DHA treatment effect on NPI in the E4-negative group ([4]; ApoE4-negative subjects): not present | NPI points change over 18 months ([4]; all subjects, LME analysis, placebo 5.09±15.08, p=0.11): 2.93±13.62 points | Difference DHA vs placebo on NPI [4, 11]: no significant difference | DHA treatment effect on ADCS-ADL in the E4-negative group ([6]; ApoE4-negative subjects): not present | ADCS-ADL points change over 18 months (rate of decline) ([6]; all subjects, LME analysis, placebo 10.43±11.74, p=0.38): 11.51±13.23 points | Difference DHA vs placebo on ADCS-ADL [6, 11]: no significant difference | ADAS-cog points change over 18 months, E4-negative group ([7]; ApoE4-negative, 61 DHA subjects, placebo 10.11±10.58 (48 subjects), p=0.028): 6.23±8.58 points | Difference DHA vs placebo in 12 month ADAS scores ([7]; Wilcoxan rank p=0.027, FIG. 1): modest difference | Difference DHA vs placebo on ADAS-cog (rate of change) ([7]; all subjects, LME model, 18 months): did not differ; also recorded: no significant difference | ADAS-cog points change over 18 months ([7]; all subjects, unadjusted, placebo 7.98±9.84, p=0.41): 8.27±8.9 points | ADAS-cog decline in ApoE4 negative subjects with MMSE >21 compared to MMSE ≦21 ([7]; post hoc analysis, FIGS. 7A and 7B): significantly less decline; also recorded: more pronounced | Difference in the effect of DHA administration on ADAS-cog between ApoE4-positive and ApoE4-negative subjects ([7]; pre-specified sub-group analysis, FIGS. 6A and 6B): statistically significant difference | MMSE change, E4-negative group ([9]; ApoE4-negative, placebo printed 5.12±5.08, p=0.034): −3.36±4.78 | MMSE points change from baseline to 18 months ([9]; all subjects, ANCOVA, placebo −4.0±4.7, p=0.88): −3.70±4.95 points | Difference DHA vs placebo on MMSE ([9]; all subjects, after 18 months of treatment): no significant difference | Benefit in reducing decline in cognitive ability in AD subjects negative for the ApoE4 allele ([10]; ApoE4-negative subjects afflicted with AD): significant benefit | DHA treatment effect on any outcome measure in the E4-positive group ([10]; ApoE4-positive subjects): no DHA treatment effect
